# Test results reported in patent US20220257713A1, “COMPOUND AND COMPOSITIONS FOR MULTITARGET TREATMENT OF TAU PROTEIN-RELATED DISORDERS” (FONDAZIONE IRCCS ISTITUTO NEUROLOGICO CARLO BESTA, priority 2019, published 2022).
# Residues, ends and D or L forms follow the SMILES beside them.
# Columns and labels:
# [1] = mouse, in vivo, 16.7 mg/kg
# Experimental: FIG. 3. […] Mice were sacrificed 4 (A), 24 (B) and 48 (C) hours after the last administration.
# To this end, preliminarily wild-type mice were treated once a week for 4 weeks at a dose of 16.7 mg/kg. Animals were sacrificed 4, 24, 48 hours from the last intranasal delivery.
# APPSwe/PS1DE9 = conditions: mouse, in vivo, 50 mg/kg
# Experimental: FIG. 4. Mouse brain distribution of Aβ1-6A2V (D) peptide 2 hours after the last intranasal administration: A) Control and B) Treated Mice. FIG. 5. Effect of Aβ1-6A2V(D) on Aβ oligomer formation in the brain: biochemical assessment. APPSwe/PS1DE9 were treated with Aβ1-6A2V(D) at 50 mg/kg for five months. Control group was treated intranasally with PBS. A: Levels of Aβ aggregates in soluble and insoluble brain fractions after 2.5 months of treatment. B: Levels of Aβ aggregates in soluble and insoluble brain fractions after five months of treatment. * p<0.01; *** p<0.001. FIG. 6. Effect of Aβ1-6A2V(D) on Aβ deposits in mouse brain: neuropathological assessment. A: APPSwe/PS1DE9 were treated with Aβ1-6A2V(D) daily for five months at 50 mg/kg. Control group (CTRL) was treated intranasally with PBS. Amyloid burden measured by plaque count. ** p<0.01; *** p<0,001. B: Immunohistochemistry with the 4G8 anti-Aβ antibody. FIG. 7. Effect of Aβ1-6A2V(D) on synaptopathy. Subcellular fractionation of hippocampal homogenates from mice treated with Aβ1-6A2V(D) (right columns) or PBS (left columns). Western blot analysis with antibodies against synaptic receptors (NMDA-2A, GluN2B, GluA1 and GluA2) and scaffold protein (PSD95). The treatment with Aβ1-6A2V(D) preserved synaptic integrity. […]
smiles,measurement,setting,value
CC(C)[C@@H](NC(=O)[C@H](N)CC(=O)O)C(=O)N[C@H](CCC(=O)O)C(=O)N[C@H](Cc1ccccc1)C(=O)N[C@H](CCCNC(=N)N)C(=O)N[C@H](Cc1c[nH]cn1)C(=O)O [Aβ1-6A2V(D)] (HELM PEPTIDE1{[dD].[dV].[dE].[dF].[dR].[dH]}$$$$V2.0; N-terminus and C-terminus assumed),Diffusion of the peptide in brain tissue,[1],consistent diffusion of the peptide in brain tissue
same,Presence of the peptide in cerebral cortex 48 hours after last treatment,[1],can be still observed in the cerebral cortex
same,Diffusion of the peptide in brain tissue,APPSwe/PS1DE9,consistent diffusion of the peptide in brain tissue
